Experimental findings from PubChem BioAssay AID248 (DTP/NCI, 2004) are described below.

Molecules are shown by their SMILES. “And” between values parts separate entries of the source, which are not always exact repeats. Identical values can stand only once. Inconclusive results and toxic doses are left out.

The test system of this assay is L1210 leukemia ip in BDF1 mice, survival T/C. The experiment in a line: NCI In Vivo Anticancer Drug Screen. Data for tumor model L1210 Leukemia (intraperitoneal) in B6D2F1 (BDF1) mice. The conditions noted are these: higher = longer survival. In a few lines:
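Tumor cells were implanted, animals were treated, and survival was followed. The result divides the treated measurement by the vehicle-control measurement.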

The mark [1] stands for this setting: endpoint: mean survival time, dose: 100.0 mg/kg/injection, schedule: Q04DX002 (ip), vehicle: saline with Tween-80.
[2] abbreviates: endpoint: mean survival time, dose: 200.0 mg/kg/injection, schedule: Q01DX009 (ip), vehicle: saline with Tween-80.
Where [3] appears, read: endpoint: mean survival time, dose: 200.0 mg/kg/injection, schedule: Q04DX002 (ip), vehicle: saline with Tween-80.
The mark [4] stands for this setting: endpoint: mean survival time, dose: 400.0 mg/kg/injection, schedule: Q04DX002 (ip), vehicle: saline with Tween-80.
[5] abbreviates: endpoint: mean survival time, dose: 100.0 mg/kg/injection, schedule: Q01DX001 (ip), vehicle: carboxymethylcellulose (CMC).
[6] abbreviates: endpoint: mean survival time, dose: 200.0 mg/kg/injection, schedule: Q01DX001 (ip), vehicle: carboxymethylcellulose (CMC).
The mark [7] stands for this setting: endpoint: mean survival time, dose: 400.0 mg/kg/injection, schedule: Q01DX001 (ip), vehicle: carboxymethylcellulose (CMC).
Where [8] appears, read: endpoint: mean survival time, dose: 100.0 mg/kg/injection, schedule: Q01DX001 (ip), vehicle: saline.
[9] abbreviates: endpoint: mean survival time, dose: 200.0 mg/kg/injection, schedule: Q01DX001 (ip), vehicle: saline.
Setting [10] is: endpoint: mean survival time, dose: 400.0 mg/kg/injection, schedule: Q01DX001 (ip), vehicle: saline.
Where [11] appears, read: endpoint: mean survival time, dose: 100.0 mg/kg/injection, schedule: Q04DX003 (ip), vehicle: saline.

As for `O=C(NC(=S)Nc1cc(C(F)(F)F)ccc1Cl)c1ccccc1F`, the T/C was 93 % of control and 97 % of control (endpoint: mean survival time, dose: 12.5 mg/kg/injection, schedule: Q01DX009 (ip), vehicle: saline with Tween-80); 104 % of control (endpoint: mean survival time, dose: 100.0 mg/kg/injection, schedule: Q01DX001 (ip), vehicle: saline with Tween-80); 97 % of control and 100 % of control under setting [1]; 102 % of control (endpoint: mean survival time, dose: 200.0 mg/kg/injection, schedule: Q01DX001 (ip), vehicle: saline with Tween-80); 86 % of control under setting [2]; 93 % of control and 97 % of control under setting [3]. For the same compound, the T/C is 102 % of control (endpoint: mean survival time, dose: 400.0 mg/kg/injection, schedule: Q01DX001 (ip), vehicle: saline with Tween-80); 95 % of control (endpoint: mean survival time, dose: 400.0 mg/kg/injection, schedule: Q01DX009 (ip), vehicle: saline with Tween-80); 100 % of control and 91 % of control under setting [4]; 87 % of control (endpoint: mean survival time, dose: 400.0 mg/kg/injection, schedule: Q04DX003 (ip), vehicle: saline with Tween-80).
`C/C(=N\N=C(N)N)c1ccccc1`: the T/C by setting is: (endpoint: mean survival time, dose: 15.0 mg/kg/injection, schedule: Q01DX Z (oral), vehicle: carboxymethylcellulose (CMC)) 102 % of control; (endpoint: mean survival time, dose: 30.0 mg/kg/injection, schedule: Q01DX Z (oral), vehicle: carboxymethylcellulose (CMC)) 97 % of control.
For the compound `CCOC(=O)C(CCc1ccncc1)c1ccccc1` (centres undefined), the T/C is, setting by setting: (endpoint: mean survival time, dose: 111.0 mg/kg/injection, schedule: Q01DX Z (ip), vehicle: methylcellulose (MC)) 94 % of control; (endpoint: mean survival time, dose: 166.0 mg/kg/injection, schedule: Q01DX Z (ip), vehicle: methylcellulose (MC)) 102 % of control; (endpoint: mean survival time, dose: 250.0 mg/kg/injection, schedule: Q01DX Z (ip), vehicle: methylcellulose (MC)) 96 % of control.
Consider `C=CCOC(=O)Nc1cccc(O)c1`, for which the T/C was 106 % of control under setting [1], 110 % of control under setting [3] and 103 % of control under setting [4].
Take `CCn1cc(C(=O)O)c(=O)c2cccc(OC)c21`: the T/C runs as follows: (endpoint: mean survival time, dose: 50.0 mg/kg/injection, schedule: Q04DX002 (ip), vehicle: saline) 86 % of control; (endpoint: mean survival time, dose: 100.0 mg/kg/injection, schedule: Q04DX002 (ip), vehicle: saline) 115 % of control; (endpoint: mean survival time, dose: 200.0 mg/kg/injection, schedule: Q04DX002 (ip), vehicle: saline) 100 % of control.
For the compound `CC12CCC(O)CC1CCC1C2CCC2(C)C1CC1NC12` (centres undefined), the T/C runs as follows: (endpoint: mean survival time, dose: 100.0 mg/kg/injection, schedule: Q01DX001 (sc), vehicle: steriod suspending solution) 92 % of control; (endpoint: mean survival time, dose: 200.0 mg/kg/injection, schedule: Q01DX001 (sc), vehicle: steriod suspending solution) 94 % of control.
For `O=C(c1ccccc1)C(Br)C(Br)C(=O)c1ccccc1` (centres undefined), the T/C is, setting by setting: under setting [5], 107 % of control; (endpoint: mean survival time, dose: 100.0 mg/kg/injection, schedule: Q01DX009 (ip), vehicle: Klucel (hydroxypropylcellulose) (HPC)) 93 % of control; (endpoint: mean survival time, dose: 100.0 mg/kg/injection, schedule: Q04DX003 (ip), vehicle: Klucel (hydroxypropylcellulose) (HPC)) 91 % of control; under setting [6], 96 % of control; (endpoint: mean survival time, dose: 200.0 mg/kg/injection, schedule: Q01DX009 (ip), vehicle: Klucel (hydroxypropylcellulose) (HPC)) 101 % of control; (endpoint: mean survival time, dose: 200.0 mg/kg/injection, schedule: Q04DX003 (ip), vehicle: Klucel (hydroxypropylcellulose) (HPC)) 88 % of control. For the same compound, the T/C by setting is: under setting [7], 107 % of control; (endpoint: mean survival time, dose: 400.0 mg/kg/injection, schedule: Q01DX009 (ip), vehicle: Klucel (hydroxypropylcellulose) (HPC)) 91 % of control; (endpoint: mean survival time, dose: 400.0 mg/kg/injection, schedule: Q04DX003 (ip), vehicle: Klucel (hydroxypropylcellulose) (HPC)) 90 % of control.
Take `O=[N+]([O-])c1ccc2c(c1)/C(=N\O)c1cc(Cl)ccc1-2`: the T/C is 97 % of control under setting [5], 97 % of control under setting [6] and 94 % of control under setting [7].
Take `O=C(O)C(Br)C(Br)c1ccc([N+](=O)[O-])cc1` (centres undefined): the T/C is 103 % of control (endpoint: mean survival time, dose: 100.0 mg/kg/injection, schedule: Q04DX002 (ip), vehicle: gum acacia); 107 % of control (endpoint: mean survival time, dose: 200.0 mg/kg/injection, schedule: Q04DX002 (ip), vehicle: gum acacia); 90 % of control (endpoint: mean survival time, dose: 400.0 mg/kg/injection, schedule: Q04DX002 (ip), vehicle: gum acacia).
As to `Cc1ccc(S(=N)(=O)C2CC2)cc1` (centres undefined), the T/C reads like this: under setting [8], 95 % of control; under setting [9], 93 % of control; under setting [10], 103 % of control.
The matching figures for `ON=C1CCSCC1`: 107 % of control, 98 % of control and 108 % of control.
In the case of `Cc1cc(C)[n+](C)c(C)c1`, the T/C is, setting by setting: (endpoint: mean survival time, dose: 12.5 mg/kg/injection, schedule: Q04DX003 (ip), vehicle: saline) 96 % of control; (endpoint: mean survival time, dose: 25.0 mg/kg/injection, schedule: Q04DX003 (ip), vehicle: saline) 93 % of control; (endpoint: mean survival time, dose: 50.0 mg/kg/injection, schedule: Q04DX003 (ip), vehicle: saline) 101 % of control; under setting [11], 93 % of control.
Take `Nc1nc2nsnc2nc1N`: the T/C reads like this: (endpoint: mean survival time, dose: 3.12 mg/kg/injection, schedule: Q01DX009 (ip), vehicle: water) 86 % of control; (endpoint: mean survival time, dose: 6.25 mg/kg/injection, schedule: Q01DX009 (ip), vehicle: water) 93 % of control; (endpoint: mean survival time, dose: 12.5 mg/kg/injection, schedule: Q01DX009 (ip), vehicle: water) 90 % of control; (endpoint: mean survival time, dose: 25.0 mg/kg/injection, schedule: Q01DX009 (ip), vehicle: water) 98 % of control and 106 % of control; (endpoint: mean survival time, dose: 50.0 mg/kg/injection, schedule: Q01DX009 (ip), vehicle: water) 97 % of control and 91 % of control.
On to `Cc1cc(-c2ccccc2)c2ccccc2c1N(CC(=O)O)S(=O)(=O)c1ccccc1`, for which the T/C by setting is: (endpoint: mean survival time, dose: 100.0 mg/kg/injection, schedule: Q01DX009 (ip), vehicle: saline with Tween-80) 105 % of control; under setting [11], 98 % of control; under setting [2], 93 % of control; (endpoint: mean survival time, dose: 200.0 mg/kg/injection, schedule: Q04DX003 (ip), vehicle: saline) 104 % of control; (endpoint: mean survival time, dose: 400.0 mg/kg/injection, schedule: Q04DX003 (ip), vehicle: saline) 102 % of control.
For `C=CCNC(=O)NCC=C`, the T/C was 114 % of control (endpoint: mean survival time, dose: 6.25 mg/kg/injection, schedule: Q01DX009 (ip), vehicle: saline); 116 % of control (endpoint: mean survival time, dose: 6.25 mg/kg/injection, schedule: Q01DX009 (oral), vehicle: saline); 105 % of control and 106 % of control (endpoint: mean survival time, dose: 12.5 mg/kg/injection, schedule: Q01DX009 (ip), vehicle: saline); 110 % of control (endpoint: mean survival time, dose: 12.5 mg/kg/injection, schedule: Q01DX009 (oral), vehicle: saline); 176 % of control (endpoint: mean survival time, dose: 50.0 mg/kg/injection, schedule: Q01DX009 (oral), vehicle: saline); 111 % of control under setting [8]. Moreover, the T/C under setting [9] is 114 % of control; the T/C (endpoint: mean survival time, dose: 200.0 mg/kg/injection, schedule: Q01DX009 (oral), vehicle: saline) is 100 % of control; the T/C (endpoint: mean survival time, dose: 300.0 mg/kg/injection, schedule: Q01DX009 (ip), vehicle: saline) was 122 % of control; the T/C (endpoint: median survival time, dose: 12.5 mg/kg/injection, schedule: Q01DX009 (ip), vehicle: saline) is 122 % of control; the T/C (endpoint: median survival time, dose: 12.5 mg/kg/injection, schedule: Q01DX009 (sc), vehicle: saline) was 116 % of control; the T/C (endpoint: median survival time, dose: 50.0 mg/kg/injection, schedule: Q01DX009 (ip), vehicle: saline) is 112 % of control and 122 % of control. The T/C by setting is: (endpoint: median survival time, dose: 100.0 mg/kg/injection, schedule: Q01DX001 (ip), vehicle: saline) 105 % of control; (endpoint: median survival time, dose: 100.0 mg/kg/injection, schedule: Q01DX001 (sc), vehicle: saline) 105 % of control; (endpoint: median survival time, dose: 100.0 mg/kg/injection, schedule: Q04DX003 (ip), vehicle: saline) 105 % of control; (endpoint: median survival time, dose: 100.0 mg/kg/injection, schedule: Q04DX003 (sc), vehicle: saline) 111 % of control; (endpoint: median survival time, dose: 200.0 mg/kg/injection, schedule: Q01DX001 (ip), vehicle: saline) 111 % of control; (endpoint: median survival time, dose: 200.0 mg/kg/injection, schedule: Q01DX001 (sc), vehicle: saline) 111 % of control. In addition, the T/C reads like this: (endpoint: median survival time, dose: 200.0 mg/kg/injection, schedule: Q01DX009 (ip), vehicle: saline) 100 % of control and 122 % of control; (endpoint: median survival time, dose: 200.0 mg/kg/injection, schedule: Q04DX003 (ip), vehicle: saline) 116 % of control; (endpoint: median survival time, dose: 200.0 mg/kg/injection, schedule: Q04DX003 (sc), vehicle: saline) 116 % of control.
